From article PMC7481839, “Switchable foldamer ion channels with antibacterial activity” (Chemical Science, 2020) come the findings set out here.

A short description of the assay: Lucigenin assay of Cl− transport in vesicles. The format is biochemical. Conditions: 10 µM compound, interior NaNO3 200 mM, exterior NaCl (2 M), 0.762 mM lipid, 25°C, first-order curve fit. How it is done: To confirm that chloride could pass through the bilayers, lucigenin assays[5a] were performed for 2, Cu(II)[1]Cl2 and Cu(II)[2]Cl2 (Fig. 5 and ESI, Fig. S10 ^†). The same lipids were used as for the HPTS assays and lucigenin was encapsulated with NaNO3 in the vesicles.
Figure S9: Ionophoric activity determined through an HPTS assay in the presence of NaCl (100 mM) for: 2 (10 µM) in the absence (pink inverted triangles) and presence of FCCP (20 µM, blue triangles) and Cu(II)[2]Cl2 (6 µM) in the absence (red circles) and presence of FCCP (20 µM, black squares). Base pulse at 1 min, TX-100 added at 7 min.
5.4 Preparation of large unilamellar vesicles for lucigenin assays […]
Lucigenin assays procedure and fluorescence normalisation were developed by a modification of published methods.10 An aliquot of the vesicle stock solution (100 μL) w as diluted to 1.9 mL with 200 mM NaNO 3 in water (pH = 7.4) (final lipid co ncentration in cuvette 0.762 mM). […] The cuvette was then placed into a Varian Cary Eclipse fluorescence spectrophotometer in the moderate stirring mode. The fluorescence emission at 505 nm was observed, resulting from excitation at 455 nm, over a period of seven minutes (420 seconds) at 25°C. […] The change in fluorescence was followed for six minutes before final lysis of the vesicles at seven minutes (420 s) by adding an aliquot of a 10 % v/v solution of Triton X-100 […]

Structures are written as SMILES. Where a SMILES comes first, the peptide text is derived from it.

Turning to `CC(C)(NC(=O)C(C)(C)NC(=O)C(C)(C)NC(=O)C(C)(C)NC(=O)C(C)(C)n1cc(CN(Cc2ccccn2)Cc2ccccn2)nn1)C(=O)NC(C)(C)C(=O)NC(C)(C)C(=O)NC(C)(C)C(=O)OCC[Si](C)(C)C` [foldamer 2] (HELM PEPTIDE1{[CC(C)(C(=O)[*:2])n1cc(CN(Cc2ccccn2)Cc2ccccn2)nn1].[Aib].[Aib].[Aib].[Aib].[Aib].[Aib].[Aib].[C[Si](C)(C)CCO[*:1]]}$$$$V2.0), the “kobs of Cl− transport (lucigenin assay)” value was 0.0052 s⁻¹.
